We go through 4 compounds from patent EP3046573B1, “AMYLIN ANALOGUES” (Zealand Pharma A/S, priority 2013, dated 2015).

Each structure is given as a SMILES string. pEC50: −log10 of the molar value. Read-outs that look alike come from different tables or passages of the source. Numbered stars: 1 amine (or outer) side, 2 acyl side, 3 side chain; on linkers, the order of the positions; unused ones are H or OH. Bridge positions count the residues as written; N and C are the ends. Square brackets hold non-standard residues; d marks the D form. Peptide text beside a SMILES is read from it. * marks the point of attachment. C20 diacid = O=C(O)CCCCCCCCCCCCCCCCCCC(=O)*; γGlu = O=C(O)[C@H](CCC(=O)[*:2])N[*:1]; NMeY = CN[C@@H](Cc1ccc(O)cc1)C(=O)O; NMeI = CC[C@H](C)[C@H](NC)C(=O)O; Dab = NCC[C@H](N)C(=O)O; Sar = CNCC(=O)O

Data set [1] concerns the target T1, human calcitonin receptor (hCTR2) (Homo sapiens, UniProt P30988).
T1 construct: expressed in transfected cells
T1 sequence (P30988 25-474): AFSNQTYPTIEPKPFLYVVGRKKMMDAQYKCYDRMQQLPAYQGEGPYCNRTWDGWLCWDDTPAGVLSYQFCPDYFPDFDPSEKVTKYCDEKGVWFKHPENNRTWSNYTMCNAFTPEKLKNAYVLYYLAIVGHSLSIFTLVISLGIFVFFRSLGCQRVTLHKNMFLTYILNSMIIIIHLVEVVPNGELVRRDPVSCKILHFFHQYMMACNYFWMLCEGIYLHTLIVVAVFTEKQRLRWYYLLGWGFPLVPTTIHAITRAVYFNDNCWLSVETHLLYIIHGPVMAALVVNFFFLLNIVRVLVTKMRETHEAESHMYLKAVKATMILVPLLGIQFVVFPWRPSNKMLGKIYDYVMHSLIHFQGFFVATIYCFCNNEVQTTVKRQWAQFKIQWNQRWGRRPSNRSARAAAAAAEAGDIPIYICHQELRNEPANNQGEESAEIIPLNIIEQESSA
The data set can be described thus: hCTR2 assay: induction of cAMP (AlphaScreen cAMP Assay kit) in COS7 cells expressing hCTR2. It is filed as cell-based. The essentials: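 Cells were seeded one day ahead, washed, then exposed to rising peptide concentrations for 15 min at 37° C in the presence of 100 µM IBMX. After lysis for 10 min at room temperature, cAMP was quantified by AlphaScreen and EC50 values derived by 4PL fitting.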
(In general: In Alpha technology, singlet oxygen from a donor bead excites a nearby acceptor bead.)

Data set [2] can be described thus: Solubility assessment (turbidity absorbance at 325 nm). It is filed as physicochemical. As to conditions: stock 2 mg/ml diluted 1:1, ambient temperature (typically 25°C), n=1; for Solubility, Acetate buffer pH 4: 100 mM acetate buffer pH 4.0; for Solubility, Acetate buffer pH 5: 100 mM acetate buffer pH 5.0; for Solubility, Histidine buffer pH 6: 100 mM histidine buffer pH 6.0; for Solubility, Histidine buffer pH 7: 100 mM histidine buffer pH 7.0; for Solubility, Phosphate buffer pH 6: 100 mM phosphate buffer pH 6.0; for Solubility, Phosphate buffer pH 7: 100 mM phosphate buffer pH 7.0; for Solubility, Phosphate buffer pH 7.5: 100 mM phosphate buffer pH7.5. The method, boiled down:
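Turbidimetric screen across pH 4.0–7.5 in 100 mM acetate, histidine and phosphate buffers. A 2 mg/ml peptide stock (pH 2.5) was diluted 1:1 into each, then A325 measured at ambient temperature; values ≤ 0.02 AU denoted solubility of 1 mg/ml or more.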

Where [3] appears, read: cAMP induction in COS7 cells expressing hCTR2, average of a minimum of 3 determinations, read-out: hCTR2 EC50.

`CC[C@H](C)[C@@H](C(=O)N[C@@H](CC(C)C)C(=O)N[C@H](CO)C(=O)N[C@@H](CO)C(=O)N[C@H](C(=O)N[C@@H](CC(N)=O)C(=O)N[C@H](C(=O)NCC(=O)N[C@@H](CO)C(=O)N[C@@H](CC(N)=O)C(=O)N[C@H](C(=O)N1CCC[C@H]1C(N)=O)[C@@H](C)O)C(C)C)[C@@H](C)O)N(C)C(=O)CN(C)C(=O)[C@@H](Cc1ccccc1)NC(=O)[C@H](CC(N)=O)NC(=O)[C@H](CC(N)=O)NC(=O)[C@H](CO)NC(=O)[C@H](CO)NC(=O)[C@H](Cc1c[nH]cn1)NC(=O)[C@H](Cc1c[nH]cn1)NC(=O)[C@H](CC(C)C)NC(=O)[C@H](Cc1ccccc1)NC(=O)[C@H](CCC(=O)O)NC(=O)[C@H](C)NC(=O)[C@H](CC(C)C)NC(=O)[C@H](CCCNC(=N)N)NC(=O)[C@H](CCC(N)=O)NC(=O)[C@@H](NC(=O)[C@H](C)NC(=O)[C@@H]1CSSC[C@H](NC(=O)[C@H](CCCNC(=N)N)NC(=O)CC[C@H](NC(=O)CCCCCCCCCCCCCCCCCCC(=O)O)C(=O)O)C(=O)N[C@@H](CC(N)=O)C(=O)N[C@@H]([C@@H](C)O)C(=O)N[C@@H](C)C(=O)N[C@@H]([C@@H](C)O)C(=O)N1)[C@@H](C)O` [Compound 60, [19CD]-isoGlu-RC()NTATC()ATQRLAEFLHHSSNN-DPhe-Gly(Me)-Ile(Me)-L-DSer-STNVGSNTP-NH2] ({C20 diacid-γGlu}-RCNTATCATQRLAEFLHHSSNN[dF][Sar][NMeI]L[dS]STNVGSNTP-NH2; disulfide 2-7): the negative-log EC50 (pEC50) in data set [1] (setting [3]) was 9.92. In data set [2], the “Solubility, Acetate buffer pH 4” value is “SS (SS indicates solubility ≥ 1mg/ml)”; the “Solubility, Acetate buffer pH 5” value is “SS (SS indicates solubility ≥ 1mg/ml)”; the “Solubility, Histidine buffer pH 6” value is recorded as “SS (SS indicates solubility ≥ 1mg/ml)”; the “Solubility, Histidine buffer pH 7” value is recorded as “SS (SS indicates solubility ≥ 1mg/ml)”. In addition, in data set [2], the “Solubility, Phosphate buffer pH 6” value is recorded as “SS (SS indicates solubility ≥ 1mg/ml)”; the “Solubility, Phosphate buffer pH 7” value was “II (II indicates solubility ≤ 1 mg/ml)”; the “Solubility, Phosphate buffer pH 7.5” value is reported as “SS (SS indicates solubility ≥ 1mg/ml)”.

`CC[C@H](C)[C@@H](C(=O)N[C@@H](CC(C)C)C(=O)N[C@@H](CO)C(=O)N[C@@H](CO)C(=O)N[C@H](C(=O)N[C@@H](CC(N)=O)C(=O)N[C@H](C(=O)NCC(=O)N[C@@H](CO)C(=O)N[C@@H](CC(N)=O)C(=O)N[C@H](C(=O)N(C)[C@@H](Cc1ccc(O)cc1)C(N)=O)[C@@H](C)O)C(C)C)[C@@H](C)O)N(C)C(=O)CN(C)C(=O)[C@H](Cc1ccccc1)NC(=O)[C@H](CC(N)=O)NC(=O)[C@H](CC(N)=O)NC(=O)[C@H](CO)NC(=O)[C@H](CO)NC(=O)[C@H](Cc1c[nH]cn1)NC(=O)[C@H](Cc1c[nH]cn1)NC(=O)[C@H](CC(C)C)NC(=O)[C@H](Cc1ccccc1)NC(=O)[C@H](CCC(=O)O)NC(=O)[C@H](C)NC(=O)[C@H](CC(C)C)NC(=O)[C@H](CCCNC(=N)N)NC(=O)[C@H](CCC(N)=O)NC(=O)[C@@H](NC(=O)[C@H](C)NC(=O)[C@@H]1CSSC[C@H](NC(=O)[C@H](CCCNC(=N)N)NC(=O)CC[C@H](NC(=O)CCCCCCCCCCCCCCCCCCC(=O)O)C(=O)O)C(=O)N[C@@H](CC(N)=O)C(=O)N[C@@H]([C@@H](C)O)C(=O)N[C@@H](C)C(=O)N[C@@H]([C@@H](C)O)C(=O)N1)[C@@H](C)O` [Compound 62, [19CD]-isoGlu-RC()NTATC()ATQRLAEFLHHSSNNF-Gly(Me)-Ile(Me)-LSSTNVGSNT-Tyr(Me)-NH2] ({C20 diacid-γGlu}-RCNTATCATQRLAEFLHHSSNNF[Sar][NMeI]LSSTNVGSNT[NMeY]-NH2; disulfide 2-7): the pEC50 in data set [1] (setting [3]) was 9.43. Besides, in data set [2], the “Solubility, Acetate buffer pH 4” value was “SS (SS indicates solubility ≥ 1mg/ml)”; the “Solubility, Acetate buffer pH 5” value is recorded as “II (II indicates solubility ≤ 1 mg/ml)”; the “Solubility, Histidine buffer pH 6” value was “II (II indicates solubility ≤ 1 mg/ml)”; the “Solubility, Histidine buffer pH 7” value was “II (II indicates solubility ≤ 1 mg/ml)”. In data set [2], the “Solubility, Phosphate buffer pH 6” value is on record as “II (II indicates solubility ≤ 1 mg/ml)”; the “Solubility, Phosphate buffer pH 7” value is reported as “II (II indicates solubility ≤ 1 mg/ml)”; the “Solubility, Phosphate buffer pH 7.5” value is on record as “II (II indicates solubility ≤ 1 mg/ml)”.

`CC[C@H](C)[C@@H](C(=O)N[C@@H](CC(C)C)C(=O)N[C@@H](CO)C(=O)N[C@@H](CO)C(=O)N[C@H](C(=O)N[C@@H](CC(N)=O)C(=O)N[C@H](C(=O)NCC(=O)N[C@@H](CO)C(=O)N[C@@H](CC(N)=O)C(=O)N[C@H](C(=O)N1CCC[C@H]1C(N)=O)[C@@H](C)O)C(C)C)[C@@H](C)O)N(C)C(=O)[C@H](C)NC(=O)CN(C)C(=O)[C@H](Cc1ccccc1)NC(=O)[C@H](CC(N)=O)NC(=O)[C@H](CC(N)=O)NC(=O)[C@H](CO)NC(=O)[C@H](CO)NC(=O)[C@H](Cc1c[nH]cn1)NC(=O)[C@H](Cc1c[nH]cn1)NC(=O)[C@H](CC(C)C)NC(=O)[C@H](Cc1ccccc1)NC(=O)[C@H](CCC(=O)O)NC(=O)[C@H](C)NC(=O)[C@H](CC(C)C)NC(=O)[C@H](CCCNC(=N)N)NC(=O)[C@H](CCC(N)=O)NC(=O)[C@@H](NC(=O)[C@H](C)NC(=O)[C@@H]1CSSC[C@H](NC(=O)[C@H](CCN)NC(=O)CC[C@H](NC(=O)CCCCCCCCCCCCCCCCCCC(=O)O)C(=O)O)C(=O)N[C@@H](CC(N)=O)C(=O)N[C@@H]([C@@H](C)O)C(=O)N[C@@H](C)C(=O)N[C@@H]([C@@H](C)O)C(=O)N1)[C@@H](C)O` [Compound 63, [19CD]-isoGlu-Dab-C()NTATC()ATQRLAEFLHHSSNNF-Gly(Me)-A-Ile(Me)-LSSTNVGSNTP-NH2] ({C20 diacid-γGlu}-[Dab]CNTATCATQRLAEFLHHSSNNF[Sar]A[NMeI]LSSTNVGSNTP-NH2; disulfide 2-7): in data set [1], the pEC50 was 9.70. Besides, in data set [2], the “Solubility, Acetate buffer pH 4” value is listed as “SS (SS indicates solubility ≥ 1mg/ml)”; the “Solubility, Acetate buffer pH 5” value is “II (II indicates solubility ≤ 1 mg/ml)”; the “Solubility, Histidine buffer pH 6” value is recorded as “SS (SS indicates solubility ≥ 1mg/ml)”; the “Solubility, Histidine buffer pH 7” value is recorded as “SS (SS indicates solubility ≥ 1mg/ml)”. In data set [2], the “Solubility, Phosphate buffer pH 6” value is “SS (SS indicates solubility ≥ 1mg/ml)”; the “Solubility, Phosphate buffer pH 7” value is “SS (SS indicates solubility ≥ 1mg/ml)”; the “Solubility, Phosphate buffer pH 7.5” value is “SS (SS indicates solubility ≥ 1mg/ml)”.

For the compound `CC[C@H](C)[C@@H](C(=O)N[C@@H](CC(C)C)C(=O)N[C@@H](CO)C(=O)N[C@@H](CO)C(=O)N[C@H](C(=O)N[C@@H](CC(N)=O)C(=O)N[C@H](C(=O)NCC(=O)N[C@@H](CO)C(=O)N[C@@H](CC(N)=O)C(=O)N[C@H](C(=O)N1CCC[C@H]1C(N)=O)[C@@H](C)O)C(C)C)[C@@H](C)O)N(C)C(=O)CN(C)C(=O)[C@H](Cc1ccccc1)NC(=O)[C@H](CC(N)=O)NC(=O)[C@H](CC(N)=O)NC(=O)[C@H](CO)NC(=O)[C@H](CO)NC(=O)[C@H](Cc1c[nH]cn1)NC(=O)[C@H](Cc1c[nH]cn1)NC(=O)[C@H](CC(C)C)NC(=O)[C@H](Cc1ccccc1)NC(=O)[C@H](CCC(=O)O)NC(=O)[C@H](C)NC(=O)[C@H](CC(C)C)NC(=O)[C@H](CCCNC(=N)N)NC(=O)[C@H](CCC(N)=O)NC(=O)[C@@H](NC(=O)[C@H](C)NC(=O)[C@@H]1CSSC[C@H](NC(=O)[C@H](CCN)NC(=O)CC[C@H](NC(=O)CCCCCCCCCCCCCCCCCCC(=O)O)C(=O)O)C(=O)N[C@@H](CC(N)=O)C(=O)N[C@@H]([C@@H](C)O)C(=O)N[C@@H](C)C(=O)N[C@@H]([C@@H](C)O)C(=O)N1)[C@@H](C)O` [Compound 64, [19CD]-isoGlu-Dab-C()NTATC()ATQRLAEFLHHSSNNF-Gly(Me)-Ile(Me)-LSSTNVGSNTP-NH2] ({C20 diacid-γGlu}-[Dab]CNTATCATQRLAEFLHHSSNNF[Sar][NMeI]LSSTNVGSNTP-NH2; disulfide 2-7), in data set [1] (setting [3]), the pEC50 was 9.40. Besides, in data set [2], the “Solubility, Acetate buffer pH 4” value is on record as “SS (SS indicates solubility ≥ 1mg/ml)”; the “Solubility, Acetate buffer pH 5” value was “II (II indicates solubility ≤ 1 mg/ml)”; the “Solubility, Histidine buffer pH 6” value is “SS (SS indicates solubility ≥ 1mg/ml)”; the “Solubility, Histidine buffer pH 7” value is “SS (SS indicates solubility ≥ 1mg/ml)”. Besides, in data set [2], the “Solubility, Phosphate buffer pH 6” value is recorded as “SS (SS indicates solubility ≥ 1mg/ml)”; the “Solubility, Phosphate buffer pH 7” value is on record as “SS (SS indicates solubility ≥ 1mg/ml)”; the “Solubility, Phosphate buffer pH 7.5” value is given as “SS (SS indicates solubility ≥ 1mg/ml)”.

By pEC50 is commonly meant the EC50 on a negative log10 scale, so that one unit is a factor of ten.
